Assay results as given in patent US20040234610A1, “Medical device and method for inhalation of aerosolized drug with heliox” (priority 2001, published 2004).

Key:
[1] = system: adult patients with severe acute exacerbation of asthma; assay: Same randomized study: vital signs, pulse oximetry, hospital admissions; format: in vivo, human; details: for % change HR post neb 1 / % change HR post neb 2 / % change HR post neb 3: mean ± SD; for Hospital admission rate: P=0.81
Excerpt: The heliox delivery system consisted of a facemask connected to a Y-piece with the nebulizer (Airlife™ Misty-Neb™ Nebulizer) on one limb and a non-rebreather bag on the other limb (as shown in FIG. 1). Heliox flow to the nebulizer was set at 10 liters/minute (via an oxygen calibrated flow meter thus equivalent to 18 L/min Heliox flow). A separate flow of 10 liters/minute of heliox (via an oxygen calibrated flow meter thus equivalent to 18 L/min Heliox flow) was delivered to the non-rebreather bag. […] Each treatment continued until the nebulizer was dry—a period of approximately ten minutes, followed by a fifteen minute washout period. The total time for the study was approximately 90 minutes. Corticosteroid therapy for asthma exacerbations was directed by the emergency room physicians, who were not directly involved in the study.
Demographic data, chronic asthma medications, emergency room corticosteroid administration, vital signs (heart rate, mean arterial pressure, respiratory rate), oxygen saturation by pulse oximetry, emergency room length of stay and hospital admissions from the emergency room were recorded for all patients. Data are expressed as mean±SD when normally distributed and median (interquartile range) when not normally distributed. Interval data were compared using a two-tailed Student's t test or Mann Whitney U test according to normality of distribution, categorical data were compared using Chi square or Fisher Exact test when appropriate. […] The Student-Newman-Keuls test was used to compare differences between heliox and control groups after each nebulization treatment when appropriate. […] A 25% difference in percent change in FEV1 between the control and heliox groups was considered clinically important. Using a standard deviation of 28% (based on preliminary work), an a error of 0.05 and a β error of 0.20, it was estimated that a total of 42 patients (21 in each group) would be needed to avoid a type II error. […] In this situation, a P value of <0.0167 was considered to indicate statistical significance.

[2] = Nebulized particle size distribution by Anderson Cascade Impactor, Y design, drug suspension and different heliox flow rates; format: physicochemical
Method: Additional tests were performed with the ACI described in Example 3 in order to assess the device's ability to nebulize a liquid drug suspension and to assess various heliox flow rate combinations. […]

[3] = 6-6 lpm heliox (nebulizer-side port)
[4] = 10-10 lpm heliox (nebulizer-side port)
[5] = 10-18 lpm heliox (nebulizer-side port)
[6] = 18-0 lpm heliox (nebulizer-side port)
[7] = 18-10 lpm heliox (nebulizer-side port)
[8] = trial 6-6: heliox 6 L/min nebulizer, 6 L/min side port
[9] = trial 10-10: heliox 10 L/min nebulizer, 10 L/min side port
[10] = trial 10-18: heliox 10 L/min nebulizer, 18 L/min side port
[11] = trial 18-0: heliox 18 L/min nebulizer, 0 L/min side port
[12] = trial 18-10: heliox 18 L/min nebulizer, 10 L/min side port

CC(C)(C)NCC(O)c1ccc(O)c(CO)c1 (centres unmarked) [albuterol]
differences in other vital signs or pulse oximetry, heliox vs control ([1]; MAP, RR, SpO2, at any point during the study): no other significant differences in any vital signs or in pulse oximetry between the groups | % change HR post neb 1 ([1]; control (oxygen)): −8.7 ± 7.4% | % change HR post neb 2 ([1]; control (oxygen)): −4.6 ± 8.7% | % change HR post neb 3 ([1]; control (oxygen)): −2.7 ± 12.7% | Hospital admission rate ([1]; control group (oxygen)): 6 of 22 | Hospital admission rate ([1]; heliox group): 6 of 23 | % change HR post neb 1 ([1]; heliox, P 0.01 vs control): −0.9 ± 7.8% | % change HR post neb 3 ([1]; heliox, P 0.01 vs control): 5.6 ± 12.0% | % change HR post neb 2 ([1]; heliox, P 0.08 vs control): 1.0 ± 11.3% | 0.7 ≦ Mean Fraction < 5.8 μm [2, 3]: 0.755 | Mean Fraction < 0.7 μm [2, 3]: 0.112 | Mean Fraction ≧ 5.8 μm [2, 3]: 0.134 | 0.7 ≦ Mean Fraction < 5.8 μm [2, 4]: 0.773 | Mean Fraction < 0.7 μm [2, 4]: 0.159 | Mean Fraction ≧ 5.8 μm [2, 4]: 0.068 | 0.7 ≦ Mean Fraction < 5.8 μm [2, 5]: 0.626 | Mean Fraction < 0.7 μm [2, 5]: 0.306 | Mean Fraction ≧ 5.8 μm [2, 5]: 0.068 | 0.7 ≦ Mean Fraction < 5.8 μm [2, 6]: 0.658 | Mean Fraction < 0.7 μm [2, 6]: 0.224 | Mean Fraction ≧ 5.8 μm [2, 6]: 0.118 | 0.7 ≦ Mean Fraction < 5.8 μm [2, 7]: 0.609 | Mean Fraction < 0.7 μm [2, 7]: 0.317 | Mean Fraction ≧ 5.8 μm [2, 7]: 0.075 | Fraction, Adapter [2, 8]: 0.033 | Fraction, Collar [2, 8]: 0.034 | Fraction, Filter (cut size <0.40 μm) [2, 8]: 0.045 | Fraction, Stage 0 (cut size 9.00 μm, midpt 10.70 μm) [2, 8]: 0.023 | Fraction, Stage 1 (cut size 5.80 μm, midpt 7.22 μm) [2, 8]: 0.015 | Fraction, Stage 2 (cut size 4.70 μm, midpt 5.22 μm) [2, 8]: 0.013 | Fraction, Stage 3 (cut size 3.30 μm, midpt 3.94 μm) [2, 8]: 0.042 | Fraction, Stage 4 (cut size 2.10 μm, midpt 2.63 μm) [2, 8]: 0.171 | Fraction, Stage 6 (cut size 0.70 μm, midpt 0.88 μm) [2, 8]: 0.130 | Fraction, Stage 7 (cut size 0.40 μm, midpt 0.53 μm) [2, 8]: 0.067 | Fraction, Tee Piece [2, 8]: 0.015 | Fraction, Throat (USP) (cut size >9.00 μm, midpt 24.49 μm) [2, 8]: 0.013 | Fraction, Adapter [2, 9]: 0.018 | Fraction, Collar [2, 9]: 0.018 | Fraction, Filter (cut size <0.40 μm) [2, 9]: 0.053 | Fraction, Stage 0 (cut size 9.00 μm, midpt 10.70 μm) [2, 9]: 0.012 | Fraction, Stage 1 (cut size 5.80 μm, midpt 7.22 μm) [2, 9]: 0.011 | Fraction, Stage 2 (cut size 4.70 μm, midpt 5.22 μm) [2, 9]: 0.002 | Fraction, Stage 4 (cut size 2.10 μm, midpt 2.63 μm) [2, 9]: 0.171 | Fraction, Stage 6 (cut size 0.70 μm, midpt 0.88 μm) [2, 9]: 0.202 | Fraction, Stage 7 (cut size 0.40 μm, midpt 0.53 μm) [2, 9]: 0.106 | Fraction, Tee Piece [2, 9]: 0.009 | Fraction, Throat (USP) (cut size >9.00 μm, midpt 24.49 μm) [2, 9]: 0.002 | Fraction, Adapter [2, 10]: 0.015 | Fraction, Collar [2, 10]: 0.011 | Fraction, Filter (cut size <0.40 μm) [2, 10]: 0.113 | Fraction, Stage 0 (cut size 9.00 μm, midpt 10.70 μm) [2, 10]: 0.011 | Fraction, Stage 1 (cut size 5.80 μm, midpt 7.22 μm) [2, 10]: 0.006 | Fraction, Stage 2 (cut size 4.70 μm, midpt 5.22 μm) [2, 10]: 0.007 | Fraction, Stage 3 (cut size 3.30 μm, midpt 3.94 μm) [2, 10]: 0.008 | Fraction, Stage 4 (cut size 2.10 μm, midpt 2.63 μm) [2, 10]: 0.077 | Fraction, Stage 6 (cut size 0.70 μm, midpt 0.88 μm) [2, 10]: 0.232 | Fraction, Stage 7 (cut size 0.40 μm, midpt 0.53 μm) [2, 10]: 0.192 | Fraction, Tee Piece [2, 10]: 0.024 | Fraction, Throat (USP) (cut size >9.00 μm, midpt 24.49 μm) [2, 10]: 0.001 | Fraction, Adapter [2, 11]: 0.027 | Fraction, Collar [2, 11]: 0.011 | Fraction, Filter (cut size <0.40 μm) [2, 11]: 0.088 | Fraction, Stage 0 (cut size 9.00 μm, midpt 10.70 μm) [2, 11]: 0.026 | Fraction, Stage 1 (cut size 5.80 μm, midpt 7.22 μm) [2, 11]: 0.047 | Fraction, Stage 2 (cut size 4.70 μm, midpt 5.22 μm) [2, 11]: 0.013 | Fraction, Stage 3 (cut size 3.30 μm, midpt 3.94 μm) [2, 11]: 0.029 | Fraction, Stage 4 (cut size 2.10 μm, midpt 2.63 μm) [2, 11]: 0.124 | Fraction, Stage 6 (cut size 0.70 μm, midpt 0.88 μm) [2, 11]: 0.184 | Fraction, Stage 7 (cut size 0.40 μm, midpt 0.53 μm) [2, 11]: 0.137 | Fraction, Tee Piece [2, 11]: 0.005 | Fraction, Throat (USP) (cut size >9.00 μm, midpt 24.49 μm) [2, 11]: 0.002 | Fraction, Adapter [2, 12]: 0.009 | Fraction, Collar [2, 12]: 0.012 | Fraction, Filter (cut size <0.40 μm) [2, 12]: 0.106 | Fraction, Stage 0 (cut size 9.00 μm, midpt 10.70 μm) [2, 12]: 0.011 | Fraction, Stage 1 (cut size 5.80 μm, midpt 7.22 μm) [2, 12]: 0.026 | Fraction, Stage 2 (cut size 4.70 μm, midpt 5.22 μm) [2, 12]: 0.006 | Fraction, Stage 3 (cut size 3.30 μm, midpt 3.94 μm) [2, 12]: 0.016 | Fraction, Stage 4 (cut size 2.10 μm, midpt 2.63 μm) [2, 12]: 0.066 | Fraction, Stage 6 (cut size 0.70 μm, midpt 0.88 μm) [2, 12]: 0.207 | Fraction, Stage 7 (cut size 0.40 μm, midpt 0.53 μm) [2, 12]: 0.211 | Fraction, Tee Piece [2, 12]: 0.016 | Fraction, Throat (USP) (cut size >9.00 μm, midpt 24.49 μm) [2, 12]: 0.001
